In PubChem BioAssay AID1902 (Broad Institute, 2009) one finds EC50 data, which are given here for 65 compounds.

The EC50 is the concentration needed to bring the measured effect to its halfway point.

Activity calls are given as the source filed them.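 How the source made its calls: active means EC50 no more than a set limit of log units above the highest dose; inactive means the rest.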

The target in the test is S. pyogenes SKKanGAS, kanamycin survival, BacTiterGlo, 6 h. Kind of test: SKKanGAS survival reduction under kanamycin, dose response, streptokinase promoter inhibitor project, SKKanGAS strain, luminescence, dose confirmation (AID 1902).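 Further: lower survival reflects blocked streptokinase promoter driving kanamycin resistance gene.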
With `Cc1ccc(N=N/C(=C\O)C(=O)c2ccc(Cl)cc2)cc1`, the EC50 is 8590 nM. With `C[n+]1c(-c2ccccc2)c2cc(N)ccc2c2ccc(N)cc21` the figure was 1540 nM.

As to `CCCCCCCCCCCCN1[C@@H](CC(=O)O)c2cc(C(F)(F)F)ccc2S1(=O)=O`, the EC50 is 2440 nM.

As for `CCCC1=NN2C(=N)/C(=C\c3cc(C)n(-c4cc(C)cc(C)c4)c3C)C(=O)N=C2S1`, the EC50 was 1830 nM.

Take `COc1ccc(-c2cc(C3CCN(c4ccc(C(C)=O)cc4[N+](=O)[O-])CC3)[nH]n2)cc1`: the EC50 is 2760 nM. In the case of `CCc1ccc(/C=C/c2c([N+](=O)[O-])c(=O)n(C)c(=O)n2C)cc1`, the EC50 was 11000 nM.

Take `Cc1cccc(C(=O)Nc2scc(-c3ccc(Br)cc3)c2C(=O)O)c1`: the EC50 was 1890 nM. In the case of `Cc1ccc(S(=O)(=O)Nc2cccc3cccnc23)c([N+](=O)[O-])c1` it was 632 nM. In the case of `COc1ccc2oc(C(=O)Nc3nc4ccccc4[nH]3)c(C)c2c1` it was 5620 nM. `CCC1CCCCN1S(=O)(=O)c1ccc(C(=O)Nc2nnc(C3CC3)o2)cc1` (stereo not given): the EC50 was 2230 nM. With `O=C(CCCCCNC(=O)c1ccccc1)N=Nc1c(O)[nH]c2c(Br)cc(Br)cc12` the figure was 5430 nM; with `CN(Cc1cnc2nc(N)nc(N)c2n1)c1ccc(C(=O)N[C@@H](CCC(=O)O)C(=O)O)cc1`, 610 nM. With `Cc1ccc(/C=C/C2=NN(Cc3ccc(Cl)c(Cl)c3)C(=O)CC2)cc1`, the EC50 was 7830 nM. With `CC(=O)c1cccc2c(O)c(C3=Nc4ccccc4C3=O)[nH]c12` the figure was 6320 nM; with `COc1cccc(N=Nc2c(N)[nH]n3c(=O)cc(-c4ccccc4)nc23)c1`, 1780 nM; with `O=C(O)CN1C(=O)/C(=C\c2ccccc2OCc2ccc(Cl)cc2Cl)SC1=S`, 2730 nM. In the case of `O=c1/c(=C\c2cccc(O)c2)sc2nc(-c3ccccc3)c(-c3ccccc3)n12` it was 7630 nM; in that of `O=[N+]([O-])c1ccc(/C=N/Nc2nc(N3CCCCCC3)nc(N3CCCCCC3)n2)o1`, 618 nM; in that of `O=C(Nc1nc2ccc(F)cc2s1)c1ccccn1`, 694 nM. With `Oc1[nH]c2ccc(Br)cc2c1N=NC(=S)Nc1ccc(F)cc1` the figure was 115 nM; with `CC(=O)Nc1ccc(S(=O)(=O)N2CCN=C2SCc2ccc(C)cc2)cc1`, > 15000 nM (inactive); with `CCCCCn1c(N)c(-c2nc3ccccc3s2)c2c([N+](=O)[O-])nn(CC)c(=O)c21`, 8160 nM.

Regarding `CCc1ccc(N(CC(=O)NC2CC2)S(=O)(=O)c2ccc(C)cc2)cc1`, the EC50 is > 15000 nM (inactive). In the case of `O=C(CNc1cccc2ccccc12)N/N=C/c1ccc([N+](=O)[O-])o1`, the EC50 was 1120 nM. Turning to `O=C(Nc1cccc(Cl)c1N1CCCC1)c1ccc(Br)o1`, the concentration for a half-maximal effect (EC50) is 5820 nM. With `CCCC(=O)NC(c1ccc(Cl)cc1)c1ccc2cccnc2c1O` (stereo not given) the figure was 7200 nM; with `Cc1cc(Oc2cnn(C(C)(C)C)c(=O)c2Cl)cc(C(C)C)c1`, 4370 nM; with `C=CC(C)(C)c1c(O)c(CC=C(C)C)c(O)c2c(=O)c3ccc(O)c(O)c3oc12`, 1800 nM.

In the case of `CS(=O)(=O)Nc1ccc(C2=NN(C(=O)C3CCCCC3)C(c3cccs3)C2)cc1` (stereo not given), the EC50 is 3940 nM.

As for `COc1ccc(C(=O)CSc2nnc(CNC(=O)c3ccc(S(=O)(=O)N(C)C)cc3)o2)cc1`, the EC50 is > 15000 nM (inactive). In the case of `O=C(NNc1c2ccccc2nc2ccccc12)c1ccc(O)cc1O`, the EC50 is 3150 nM. Regarding `CCOc1ccccc1NC(=O)NCc1ccc2c(c1)OCO2`, the EC50 was > 15000 nM (inactive). Take `CC1(C)S[C@@H]2[C@H](NC(=O)COc3ccccc3)C(=O)N2C1C(=O)OCc1cc2ccccc2n1S(=O)(=O)c1ccccc1` (stereo not given in full): the EC50 is 3330 nM. With `Cc1cc(N/N=C/c2ccccc2O)nc(-c2ccccc2O)n1` the figure was 1600 nM; with `Cc1ccsc1C1C=C(c2cccc(Br)c2)Nc2ncnn21` (stereo not given), 14200 nM. In the case of `COC(=O)c1cc(S(=O)(=O)n2nc(C)c(Br)c2C)c(Cl)cc1Cl` it was 1010 nM; in that of `CC(C)=CCc1c2c(c(O)c3c(=O)c4c(oc13)-c1cc(O)c(O)cc1OC4C=C(C)C)C=CC(C)(C)O2` (stereo not given), 1880 nM. In the case of `O=C(CCn1cnc(-c2ccccc2)c1-c1ccccc1)N/N=C/c1ccccc1O` it was 522 nM; in that of `CC(C)c1ccc2c(c1)c(SC(C)(C)C)c(CC(C)(C)C(=O)O)n2Cc1ccc(Cl)cc1`, 875 nM; in that of `COC(=O)[C@H]1[C@H](CCc2ccccc2)NC(=O)N(Cc2ccccc2)[C@@H]1C`, > 15000 nM (inactive). Take `CCCN(CC1CC1)c1nc(C)nc(Nc2c(Cl)cc(Cl)cc2Cl)c1Cl`: the EC50 is 1260 nM.

`CC(C)(C)c1cc[n+](C2=C([O-])c3ccccc3C(=O)/C2=N\S(=O)(=O)c2ccccc2)cc1`: the EC50 was 3200 nM. In the case of `CC1(C)S[C@@H]2[C@H](NC(=O)COc3ccccc3)C(=O)N2C1C(=O)OCc1ccccc1` (stereo not given in full) it was 1040 nM; in that of `Nc1nonc1-n1nnc(C(=O)N/N=C/c2cc(Br)ccc2O)c1CNc1ccccc1`, 394 nM; in that of `COc1ccc(C(=O)OCC(=O)Nc2nnc(-c3ccccc3)o2)cc1`, 6540 nM. With `C/C(=N\NC(=O)c1ccc(Cl)c(Cl)c1)c1ccccn1` the figure was 63 nM.

Turning to `COc1cccc(N2CCN(c3ncnc4c3[nH]c3ccc(F)cc34)CC2C)c1` (stereo not given), the EC50 is 6850 nM. With `Cc1cccc(Nc2nnc(-c3ccc(N4CCOCC4)c([N+](=O)[O-])c3)c3ccccc23)c1` the figure was 4520 nM. In the case of `CN1CCN(C(c2ccc(Cl)cc2)c2cc(Cl)c3cccnc3c2O)CC1` (stereo not given) it was 1460 nM; in that of `COc1ccc(C(=O)O)cc1NC(=S)NC(=O)c1ccc(-c2ccc(Cl)cc2)o1`, 2300 nM; in that of `CCOC(=O)c1[nH]c2ccc(F)cc2c1NC(=O)c1ccccc1C(=O)O`, > 15000 nM (inactive). In the case of `NC(=O)NC(=O)CSc1nc2sc(-c3ccccc3)cc2c(=O)n1-c1ccccc1` it was 1180 nM; in that of `O=C(N/N=C/c1c(O)n(-c2ccccc2Cl)c(=O)c2ccccc12)C1COc2ccccc2O1` (stereo not given), 3740 nM; in that of `CCC1(C)Cc2c(sc3nc(SC)[nH]c(=S)c23)CO1` (stereo not given), 1870 nM.

In the case of `CCOc1ccc(NC(=O)c2ccc3c(=O)n(-c4ccc(OC)cc4OC)c(=S)[nH]c3c2)cc1`, the EC50 was 7860 nM. Turning to `Cc1ccc(/C=C/C(=O)c2ccccc(=O)c2O)c(C)c1`, the EC50 is 3570 nM. In the case of `Cc1cccc2sc(NNC(=O)c3ccc(S(=O)(=O)N4CCCC(C)C4)cc3)nc12` (stereo not given) it was 310 nM; in that of `O=C(Nc1nc(-c2ccccc2)c(-c2ccccc2)o1)c1ccc(F)cc1`, 561 nM. As to `O=C(Cc1ccc([N+](=O)[O-])cc1)N/N=C/c1ccc([N+](=O)[O-])o1`, the concentration giving a half-maximal response (EC50) is 9860 nM. On to `Cc1[nH]cnc1C(=O)N/N=C/c1ccc([N+](=O)[O-])s1`, for which the EC50 was 3730 nM. In the case of `O=C(Cn1sc2ccccc2c1=O)NC12CC3CC(CC(C3)C1)C2` it was 1120 nM; in that of `CCOC(=O)c1c(NC(=O)c2cccs2)sc(CC)c1-c1cccs1`, 13100 nM.

Turning to `O=C(OCc1csc(Nc2ccccc2)n1)c1ccc(Cl)cc1`, the EC50 is 14300 nM.

For `C/C(Cl)=C\Cn1c(O)c(N=NC(N)=S)c2cc(Br)ccc21`, the EC50 was 1360 nM. With `O=C(Nc1cccc(NC(=O)c2ccc([N+](=O)[O-])o2)c1)c1ccco1` the figure was 6610 nM.
